Data from patent US7998940B2, “Aptamers to von Willebrand factor and their use as thrombotic disease therapeutics” (Archemix Corp., priority 2004, dated 2011).
[invdT] = inverted (3'-3') thymidine; d = 2'-deoxy (DNA); m = 2'-O-methyl

Tested on: vWF dependent platelet plug formation, cynomolgus whole blood
Test: PFA-100 assay, cynomolgus macaque whole blood
Type: cell-based, cynomolgus macaques
Conditions: minimum concentration that extends closing time to 300 seconds
Text: Another assay of this Example, using the PFA-100 instrument, is an agonist independent but vWF dependent assay that uses the PFA-100 instrument (Harrison et al., Clin. Lab. Haem., v24, p 225-32 (2002)). The PFA-100 simulates the formation of a hemostatic plug under conditions of high shear force in vivo by recording the time required for a platelets to aggregate and block the flow of citrated whole blood through a microscopic aperture in a membrane coated with collagen and either epinephrine or ADP. This activity is von Willebrand factor dependent as high MW vWF multimers bind to immobilized collagen on the membrane and then bind to and activate platelets because of the shear force induced by drawing the blood through the microscopic aperture.
Fresh whole blood was collected from healthy non-steroidal anti-inflammatory drug (NSAID) free cynomolgus macaques. […]
In order to assay the titration of aptamer in whole blood, the aptamer was added to no-additive vacutainer tubes and diluted to the desired concentrations (ex: 0 nM, 1 nM to 1000 nM) using physiological saline such that the final volume was […]. When the PFA-100 was ready to run the next set of samples, 1940 μl of whole blood was added to the tube containing a concentration of aptamer. […] The time of occlusion of the aperture was measured by the PFA-100, with a maximal time of 300 seconds. […]

mGmCmGmUdGdCdAmGmUmGmCmCmUmUmCmGmGmCdCmG-s-TmGdCdGdGTmGmCdCmUdCdCmGmUdCmAmCmGmC-3T (GCGUGCAGUGCCUUCGGCCGTGCGGTGCCUCCGUCACGC; sugars from the 5' end mmmmdddmmmmmmmmmmmdmdmddddmmdmddmmdmmmm, [invdT] at 3' end, backbone not given here) [ARC1368]
~IC95 PFA-100 (nM) with citrated C. macaque whole blood: ~100 nM
